Laboratory results reported in patent US20230099803A1, “OXAZOLIDINONE FOR TREATMENT OF INFECTIONS WITH MYCOBACTERIUM TUBERCULOSIS” (priority 2017, published 2023).
In brackets after ≈: the same amount, converted by molar mass. Where two headings read alike, the source gives them in different places.

Columns and labels:
Enterococcus faecalis [1] = experiment: MIC90 broth microdilution; format: cell-based; conditions: ATCC19433, ATCC 19433, 35° C., 18 hours
[2] = tested on: Staphylococcus aureus methicillin-sensitive; experiment: MIC90 broth microdilution; format: cell-based; conditions: ATCC29213, ATCC 29213, 35° C., 18 hours
[3] = tested on: Mycobacterium tuberculosis; conditions: values marked with literature reference (^4,11 or ^15), cited from earlier work
[4] = tested on: Acinetobacter baumannii ATCC 19606; experiment: MIC90 broth microdilution; format: cell-based; conditions: ATCC19606, strain ATCC 19606, 35° C., 18 hours
Staphylococcus aureus [5] = conditions: general statement on linezolid; cited from earlier work
Pseudomonas aeruginosa = experiment: MIC90 broth microdilution; format: cell-based; conditions: for MIC90: Pseudomonas aeruginosa, PA14, 35° C., 18 hours
Enterobacter cloacae = experiment: MIC90 broth microdilution; format: cell-based; conditions: for MIC90: Enterobacter cloacae, ATCC13047, ATCC 13047, 35° C., 18 hours
[6] = tested on: Acinetobacter baumannii 6M-1b; experiment: MIC90 broth microdilution; format: cell-based; conditions: 6M1B, environmental strain 6M-1b, 35° C., 18 hours
Klebsiella pneumoniae = experiment: MIC90 broth microdilution; format: cell-based; conditions: for MIC90: Klebsiella pneumoniae, ATCC35657, ATCC 35657, 35° C., 18 hours
[7] = tested on: Acinetobacter baumannii ACBA; experiment: MIC90 broth microdilution; format: cell-based; conditions: patient isolate ACBA, 35° C., 18 hours
Mycobacterium abscessus = experiment: MIC90 broth microdilution; format: cell-based; conditions: for MIC90: Mycobacteroides abscessus, ATCC19977, 72 h, ATCC 19977, 30° C., 3 days
Mycobacterium avium = experiment: MIC90 broth microdilution; format: cell-based; conditions: for MIC90: Mycobacterium avium, 168 h, strain 104, seven days at 37° C.
[8] = tested on: Mycobacterium tuberculosis; experiment: MIC90 broth macrodilution; conditions: H37Rv; 7H9 broth, fourteen days at 37° C.
Staphylococcus aureus [9] = tested on: Staphylococcus aureus
[10] = tested on: Mycobacterium tuberculosis; experiment: Minimum bactericidal concentration (MBC99.9); format: cell-based
Staphylococcus aureus [11] = experiment: Minimum bactericidal concentration (MBC99.9); format: cell-based; conditions: up to 8 times MIC90
[12] = tested on: Mycobacterium tuberculosis; experiment: Checkerboard titration assay; format: cell-based; conditions: T145 combined with isoniazid or rifampicin
From the text: The inventors also evaluated if any drug-drug interaction existed between T145 and isoniazid or rifampicin, two drugs that comprise the backbone of tuberculosis treatment today, against Mycobacterium tuberculosis using the checkerboard assay as described above. Any antagonism or synergy between T145 and isoniazid or rifampicin is not observed, and therefore that activity of T145 against Mycobacterium tuberculosis is indifferent to that of isoniazid or rifampicin.
This assay is a modification of the broth dilution assay and was carried out as described. In summary, each well containing 10^5 CFU received two drugs each in two fold dilutions below their respective MIC90. The suspensions are incubated at 37° C. and growth was evaluated as described above. Fractional Inhibitory Concentration (FIC) of a drug in a combination that inhibits bacterial growth is the concentration of the drug in the well divided by MIC90 of the drug if used alone. The sum of FIC of each drug in the combination is the FIC index. In each well where bacterial growth was absent, FIC index was calculated and an average FIC index was determined. Drug-drug antagonism was inferred if average FIC index is >2, indifference if 0.5-2.0 and synergy if ≤ 0.5.

Enterococcus faecalis [13] = experiment: Checkerboard titration assay; format: cell-based; conditions: T145 combined with doripenem, biapenem, faropenem and tebipenem; 1x to 1/16x MIC90
[14] = tested on: methicillin-resistant Staphylococcus aureus ATCC 43300; experiment: MIC90 determination; format: cell-based; conditions: ATCC43300, methicillin-resistant strain ATCC 43300
[15] = tested on: methicillin-sensitive Staphylococcus aureus; experiment: Checkerboard titration assay; format: cell-based; conditions: T145 combined with doripenem, biapenem, faropenem and tebipenem; 1x to 1/16x MIC90
Enterococcus faecalis [16] = tested on: Enterococcus faecalis
[17] = tested on: methicillin-resistant Staphylococcus aureus; experiment: Checkerboard titration assay; format: cell-based; conditions: T145 combined with doripenem, biapenem, faropenem and tebipenem; 1x to 1/16x MIC90
Enterococcus faecalis [18] = experiment: Minimum bactericidal concentration (MBC99.9); format: cell-based; conditions: up to 8 times MIC90
[19] = Acinetobacter baumannii, read-out: MIC90

Structure (SMILES)	MIC90 (Enterococcus faecalis [1]) [µg/mL]	MIC90 [2] [µg/mL]	MIC90 [3]	MIC90 [4] [µg/mL]	MIC90 (Pseudomonas aeruginosa) [µg/mL]	MIC90 (Enterobacter cloacae) [µg/mL]	MIC90 [6] [µg/mL]	MIC90 (Klebsiella pneumoniae) [µg/mL]	MIC90 [7, 19] [µg/mL]	MIC90 [7] [µg/mL]	also measured
C[C@@H](O)[C@H]1C(=O)N2C(C(=O)[O-])=C(SC3Cn4cnc[n+]4C3)[C@H](C)[C@H]12 (stereo partly shown) [Biapenem]	0.25 to 0.5 (≈ 0.713 to 1.43 µM)	0.007 to 0.015 (≈ 0.02 to 0.0428 µM)	2.5-5.0 ^15 µg/ml								
C[C@@H](O)[C@H]1C(=O)N2C(C(=O)O)=C(S[C@@H]3CN[C@H](CNS(N)(=O)=O)C3)[C@H](C)[C@H]12 [Doripenem]	0.25 to 0.5 (≈ 0.595 to 1.19 µM)	0.003 to 0.007 (≈ 0.00713 to 0.0166 µM)	2.5-5.0 ^15 µg/ml								
C[C@@H](O)[C@H]1C(=O)N2C(C(=O)O)=C([C@H]3CCCO3)S[C@H]12 [Faropenem]	0.25 to 0.5 (≈ 0.876 to 1.75 µM)	0.015 to 0.03 (≈ 0.0526 to 0.105 µM)	2.5-5.0 ^15 µg/ml								
CC(=O)NC[C@H]1CN(c2ccc(N3CCOCC3)c(F)c2)C(=O)O1 [Linezolid]	1 to 2 (≈ 2.96 to 5.93 µM)	1 to 2 (≈ 2.96 to 5.93 µM)	0.2-2.0 ^4,11 µg/ml	> 64	> 64	> 64	0.25 to 0.5 (≈ 0.741 to 1.48 µM)	16 to 32 (≈ 47.4 to 94.9 µM)	> 64	>64	bactericidal or bacteriostatic activity (Staphylococcus aureus [5]): bacteriostatic; MIC90 ([3]; listed as linezolid): 0.5 to 2.0 µg/mL
C[C@@H](O)[C@H]1C(=O)N2C(C(=O)O)=C(S[C@@H]3CN[C@H](C(=O)N(C)C)C3)[C@H](C)[C@H]12 [Meropenem]	4 to 8 (≈ 10.4 to 20.9 µM)	0.06 to 0.13 (≈ 0.156 to 0.339 µM)		> 64	0.25 to 0.5 (≈ 0.652 to 1.3 µM)	0.13 to 0.25 (≈ 0.339 to 0.652 µM)	1 to 2 (≈ 2.61 to 5.22 µM)	< 0.06	> 64	>64	MIC90 (Mycobacterium abscessus): > 64 µg/mL; MIC90 (Mycobacterium avium): > 64 µg/mL; MIC90 [8]: 4 to 8 µg/mL
CC(=O)NC[C@H]1CN(c2ccc3c(c2)Oc2ccccc2O3)C(=O)O1 [T145, N-(((S)-3-(dibenzo[b,e][1,4]dioxin-7-yl)-2-oxooxazolidin-5-yl)methyl)acetamide]	0.25 to 0.5 (≈ 0.735 to 1.47 µM)	0.5 to 1 (≈ 1.47 to 2.94 µM)		32 to 64 (≈ 94 to 188 µM)	> 64	> 64	0.25 to 0.5 (≈ 0.735 to 1.47 µM)	> 64	> 64	>64	antimicrobial activity (in words) (Mycobacterium abscessus): no activity; MIC90 (Mycobacterium abscessus): > 64 µg/mL; selection of spontaneous resistant mutants (Staphylococcus aureus [9]): did not form classical distinct single colonies; bactericidal or bacteriostatic activity ([10]; 1, 2, 4 and 8 times MIC90): bactericidal; MBC ([10]; Mycobacterium tuberculosis, concentration at which 99.9% of bacilli are killed): 2 µg/mL (≈ 5.88 µM); antimicrobial activity (in words) (Pseudomonas aeruginosa): no activity; antimicrobial activity (in words) (Enterobacter cloacae): no activity; bactericidal or bacteriostatic activity (Staphylococcus aureus [11]): bacteriostatic; drug-drug interaction (synergy, indifference or antagonism) [12]: indifferent; drug-drug interaction (synergy, indifference or antagonism) (Enterococcus faecalis [13]): indifferent; MIC90 [14]: 0.5 to 1 µg/mL (≈ 1.47 to 2.94 µM); antimicrobial activity (in words) (Klebsiella pneumoniae): no activity; antimicrobial activity (in words) (Mycobacterium avium): no activity; MIC90 (Mycobacterium avium): > 64 µg/mL; MIC90 [8]: 0.5 to 1.0 µg/mL; drug-drug interaction (synergy, indifference or antagonism) [15]: indifferent; selection of spontaneous resistant mutants (Enterococcus faecalis [16]): did not form classical distinct single colonies; drug-drug interaction (synergy, indifference or antagonism) [17]: indifferent; bactericidal or bacteriostatic activity (Enterococcus faecalis [18]): bacteriostatic
C[C@@H](O)[C@H]1C(=O)N2C(C(=O)O)=C(SC3CN(C4=NCCS4)C3)[C@H](C)[C@H]12 [Tebipenem]	0.25 to 0.5 (≈ 0.652 to 1.3 µM)	0.03 to 0.06 (≈ 0.0782 to 0.156 µM)	1.25-2.5 ^15 µg/ml								
